Where a name gives a salt, the structure may show the parent alone. Read-outs that look alike come from different tables or passages of the source.
Legend:
[1] = target: recombinant human SOS1 polypeptide (amino acids 560-1049) (Homo sapiens (Human), UniProt Q07889); assay: biochemical; assay type: binding; conditions: read-out: Ki, Inhibition of Labeled Tracer Binding to SOS1
pERK in MKN1 cells = assay: cells; assay type: cell-based; conditions: Homo sapiens
[2] = HTRF displacement, Cy5 labelled tracer, Morrison equation for competitive binding
[3] = MKN-1, pERK inhibition, In-Cell Western, MKN1 or H358 cells (Table 24 does not say which), 0.5-1 hour incubation, read-out: IC50

Chain of recombinant human SOS1 polypeptide (amino acids 560-1049) (Q07889 560-1049): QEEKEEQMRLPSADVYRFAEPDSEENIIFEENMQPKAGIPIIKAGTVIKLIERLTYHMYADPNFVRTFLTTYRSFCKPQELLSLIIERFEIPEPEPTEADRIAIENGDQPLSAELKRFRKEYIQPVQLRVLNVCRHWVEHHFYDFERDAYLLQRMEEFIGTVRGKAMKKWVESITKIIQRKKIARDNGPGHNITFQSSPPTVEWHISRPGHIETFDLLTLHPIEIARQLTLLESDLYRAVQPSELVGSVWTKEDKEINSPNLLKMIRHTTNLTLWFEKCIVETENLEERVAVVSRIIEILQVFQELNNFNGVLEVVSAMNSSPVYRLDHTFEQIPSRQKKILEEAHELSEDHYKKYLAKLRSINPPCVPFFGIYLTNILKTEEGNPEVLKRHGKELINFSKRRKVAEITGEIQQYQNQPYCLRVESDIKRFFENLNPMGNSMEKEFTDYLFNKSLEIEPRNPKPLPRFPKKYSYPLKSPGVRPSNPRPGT

Row | Compound | Ki [1, 2] [nM] | IC50 (pERK in MKN1 cells; [3]) [nM] | Ki [1] [nM] | IC50 (pERK in MKN1 cells; MKN-1) [nM] | IC50 (pERK in MKN1 cells; MKN-1, pERK inhibition, In-Cell Western, MKN1 or H358 cells (Table 24 does not say which), 0.5-1 hour incubation) [nM]
1 | Cc1c([C@@H](C)Nc2nnc(C)c3ccc(N4CCC5(CCCN5C)CC4)cc23)cccc1C(F)(F)F [Example 10-19, (R)-4-methyl-N-(1-(2-methyl-3-(trifluoromethyl)phenyl)ethyl)-7-(1-methyl-1,8-diazaspiro[4.5]decan-8-yl)phthalazin-1-amine] | 0.28 | 69 | – | – | –
2 | Cc1c(C#N)cccc1[C@@H](C)Nc1nnc(C)c2ccc(N3CC(C)(O)C3)cc12 [Example 10-58, (R)-3-(1-((7-(3-hydroxy-3-methylazetidin-1-yl)-4-methylphthalazin-1-yl)amino)ethyl)-2-methylbenzonitrile] | 5.78 | 52 | – | – | –
3 | Cc1nnc(N[C@H](C)c2cccc(C(F)(F)F)c2F)c2cc(N3CC(N(C)C)C3)ncc12 [Example 12-66] | 2.1 | 77 | – | – | –
4 | Cc1c([C@@H](C)Nc2nncc3ccc(N4CCn5cncc5C4)cc23)cccc1C(F)(F)F [Example 1-48, (R)-7-(5,6-dihydroimidazo[1,5-a]pyrazin-7(8H)-yl)-N-(1-(2-methyl-3-(trifluoromethyl)phenyl)ethyl)phthalazin-1-amine] | 0.56 | 364 | – | – | –
5 | Cc1cc(F)ccc1[C@@H](C)Nc1nnc(C)c2cnc(N3CC(C)(N(C)C)C3)cc12 [Example 12-124] | 64.5 | 856 | – | – | –
6 | Cc1nnc(N[C@H](C)c2cccc(C(F)F)c2F)c2cc(N3CC(C)(O)C3)ncc12 [Example 12-101] | 1.45 | 22 | – | – | –
7 | Cc1c([C@@H](C)Nc2nncc3ccc(N4CCn5ncnc5C4)cc23)cccc1C(F)(F)F [Example 1-25, (R)-7-(5,6-dihydro-[1,2,4]triazolo[1,5-a]pyrazin-7(8H)-yl)-N-(1-(2-methyl-3-(trifluoromethyl)phenyl)ethyl)phthalazin-1-amine] | 0.95 | 47 | – | – | –
8 | Cc1nnc(N[C@H](C)c2cc(N)cc(C(F)(F)F)n2)c2cc(N3CC4CC(C3)O4)ncc12 [Example 16-13, N-((R)-1-(4-amino-6-(trifluoromethyl)pyridin-2-yl)ethyl)-7-(6-oxa-3-azabicyclo[3.1.1]heptan-3-yl)-4-methylpyrido[3,4-d]pyridazin-1-amine] | 25.8 | > 10000 | – | – | –
9 | Cc1c([C@@H](C)Nc2nnc(C)c3ccc(O[C@H]4CCOC4)cc23)cccc1C(F)(F)F [Example 13-1, 4-methyl-N—((R)-1-(2-methyl-3-(trifluoromethyl)phenyl)ethyl)-7-(((S)-tetrahydrofuran-3-yl)oxy)phthalazin-1-amine] | 2.77 | 149 | – | – | –
10 | Cc1c([C@@H](C)Nc2nnc(C)c3cnc(N4CCC(N5CCC5)CC4)cc23)cccc1C(F)(F)F [Example 12-33] | 0.3 | 55 | – | – | –
11 | Cc1nnc(N[C@H](C)c2cccc(F)c2Cl)c2cc(N3CC(C)(N(C)C)C3)ncc12 [Example 12-85] | 27.6 | 602 | – | – | –
12 | Cc1c([C@@H](C)Nc2nnc(C)c3ccc(N4CCC5(CCNC5)CC4)cc23)cccc1C(F)(F)F [Example 10-36, (R)-4-methyl-N-(1-(2-methyl-3-(trifluoromethyl)phenyl)ethyl)-7-(2,8-diazaspiro[4.5]decan-8-yl)phthalazin-1-amine hydrochloride salt] | – | – | 0.23 | 79 | –
13 | Cc1cc(C#N)cc([C@@H](C)Nc2nnc(C)c3ccc(N4CCOCC4)cc23)c1 [Example 21-4, (R)-3-methyl-5-(1-((4-methyl-7-morpholinophthalazin-1-yl)amino)ethyl)benzonitrile] | – | – | 13.7 | – | 118
14 | Cc1c([C@@H](C)Nc2nnc(C)c3ccc(C4CCNC(=O)C4)cc23)cccc1C(F)(F)F (stereo partly drawn) [Example 10-3, 4-(1-methyl-4-(((R)-1-(2-methyl-3-(trifluoromethyl)phenyl)ethyl)amino)phthalazin-6-yl)piperidin-2-one] | 0.71 | 85 | – | – | –

Reference: patent US11702418B2, “SOS1 inhibitors” (priority 2019, dated 2023)
